pIC50: −log10 of the molar value. Counter-ions that a name gives are not always drawn.

This passage reports IC50 results from ChEMBL document CHEMBL5036333, “Cryptoyunnanones A-H, Complex Flavanones from Cryptocarya yunnanensis” (J Nat Prod, 2021).

Holding throughout (assay type): functional, cell-based
The test system of one assay is HCT-116. The assay can be described thus: Cytotoxicity against human HCT-116 cells assessed as cell growth inhibition measured after 48 hrs by MTT assay. To be noted: HCT-116, 48 h. On the technique in general: Formazan colour is commonly taken as a measure of viable cells.
In a further assay the test system is A549. The assay can be described thus: Cytotoxicity against human A549 cells assessed as cell growth inhibition measured after 48 hrs by MTT assay. The settings on record: A549, 48 h.
A further assay deals with MDA-MB-231. The assay can be described thus: Cytotoxicity against human MDA-MB-231 cells assessed as cell growth inhibition measured after 48 hrs by MTT assay. The settings on record: MDA-MB-231, 48 h.
In the next assay the test system is PC-3. The assay can be described thus: Cytotoxicity against human PC-3 cells assessed as cell growth inhibition measured after 48 hrs by MTT assay. The settings on record: PC-3, 48 h.

For the compound `O=C(O)CCC[C@@H]1C[C@@H]2C[C@@](/C=C/c3ccccc3)(Oc3cc(O)c4c(c32)O[C@H](c2ccccc2)CC4=O)O1`, the pIC50 with HCT-116, in the assay with A549, in the assay on MDA-MB-231 and with PC-3 was under 5.00 each time.
Turning to `O=C(O)CCC[C@@H]1C[C@@H]2C[C@@](/C=C/c3ccccc3)(Oc3cc(O)c4c(c32)O[C@@H](c2ccccc2)CC4=O)O1`, the negative logarithm of the IC50 (pIC50) in the assay on HCT-116, with A549, in the assay with MDA-MB-231 and with PC-3 was under 5.00 in each case.
For `O=C1C=CC[C@H](C[C@@H]2C[C@@H]3C[C@@](/C=C/c4ccccc4)(Oc4cc(O)c5c(c43)O[C@@H](c3ccccc3)CC5=O)O2)O1`, the pIC50 (usually −log10 of the IC50, conventionally taken in molar units) is 5.05 in the assay on HCT-116, under 5.00 with A549, 5.04 in the assay on MDA-MB-231 and 5.12 with PC-3.
For `O=C1C=CC[C@H](C[C@@H]2C[C@@H]3C[C@@](/C=C/c4ccccc4)(Oc4cc(O)c5c(c43)O[C@H](c3ccccc3)CC5=O)O2)O1`, in that order: 5.09, under 5.00, 5.04 and 5.11.
Consider `O=C1C=CC[C@H](C[C@@H]2C[C@@H]3C[C@@](CCc4ccccc4)(Oc4cc(O)c5c(c43)O[C@H](c3ccccc3)CC5=O)O2)O1`, for which the negative logarithm of the IC50 (pIC50) in the assay on HCT-116 is 5.19; in the assay on A549, under 5.00; with MDA-MB-231, 5.07; in the assay on PC-3, 5.14.
For `O=C1C=CC[C@H](C[C@@H]2C[C@@H]3C[C@@](CCc4ccccc4)(Oc4cc(O)c5c(c43)O[C@@H](c3ccccc3)CC5=O)O2)O1`, in that order: 5.16, under 5.00, 5.07 and 5.14.
For `COC(=O)CCC[C@@H]1C[C@@H]2C[C@@](/C=C/c3ccccc3)(Oc3cc(O)c4c(c32)O[C@H](c2ccccc2)CC4=O)O1`, in that order: under 5.00, under 5.00, under 5.00 and under 5.00.
For `COC(=O)CCC[C@@H]1C[C@@H]2C[C@@](/C=C/c3ccccc3)(Oc3cc(O)c4c(c32)O[C@@H](c2ccccc2)CC4=O)O1`, in that order: under 5.00, under 5.00, under 5.00 and under 5.00.
For `COc1cccc2c1C(=O)c1c(O)c3c(c(O)c1C2=O)C[C@@](O)(C(=O)CO)C[C@@H]3O[C@H]1C[C@H](N)[C@H](O)[C@H](C)O1` [DOXORUBICIN HYDROCHLORIDE], the negative logarithm of the IC50 (pIC50) with MDA-MB-231 and in the assay with PC-3 was 6.70 in each case.
